In one data set the target is T1, human GluN1/GluN2B NMDA receptors (Homo sapiens, UniProt Q13224).
T1 construct: expressed in transfected cells
T1 sequence (Q13224 27-1484, other chains not shown): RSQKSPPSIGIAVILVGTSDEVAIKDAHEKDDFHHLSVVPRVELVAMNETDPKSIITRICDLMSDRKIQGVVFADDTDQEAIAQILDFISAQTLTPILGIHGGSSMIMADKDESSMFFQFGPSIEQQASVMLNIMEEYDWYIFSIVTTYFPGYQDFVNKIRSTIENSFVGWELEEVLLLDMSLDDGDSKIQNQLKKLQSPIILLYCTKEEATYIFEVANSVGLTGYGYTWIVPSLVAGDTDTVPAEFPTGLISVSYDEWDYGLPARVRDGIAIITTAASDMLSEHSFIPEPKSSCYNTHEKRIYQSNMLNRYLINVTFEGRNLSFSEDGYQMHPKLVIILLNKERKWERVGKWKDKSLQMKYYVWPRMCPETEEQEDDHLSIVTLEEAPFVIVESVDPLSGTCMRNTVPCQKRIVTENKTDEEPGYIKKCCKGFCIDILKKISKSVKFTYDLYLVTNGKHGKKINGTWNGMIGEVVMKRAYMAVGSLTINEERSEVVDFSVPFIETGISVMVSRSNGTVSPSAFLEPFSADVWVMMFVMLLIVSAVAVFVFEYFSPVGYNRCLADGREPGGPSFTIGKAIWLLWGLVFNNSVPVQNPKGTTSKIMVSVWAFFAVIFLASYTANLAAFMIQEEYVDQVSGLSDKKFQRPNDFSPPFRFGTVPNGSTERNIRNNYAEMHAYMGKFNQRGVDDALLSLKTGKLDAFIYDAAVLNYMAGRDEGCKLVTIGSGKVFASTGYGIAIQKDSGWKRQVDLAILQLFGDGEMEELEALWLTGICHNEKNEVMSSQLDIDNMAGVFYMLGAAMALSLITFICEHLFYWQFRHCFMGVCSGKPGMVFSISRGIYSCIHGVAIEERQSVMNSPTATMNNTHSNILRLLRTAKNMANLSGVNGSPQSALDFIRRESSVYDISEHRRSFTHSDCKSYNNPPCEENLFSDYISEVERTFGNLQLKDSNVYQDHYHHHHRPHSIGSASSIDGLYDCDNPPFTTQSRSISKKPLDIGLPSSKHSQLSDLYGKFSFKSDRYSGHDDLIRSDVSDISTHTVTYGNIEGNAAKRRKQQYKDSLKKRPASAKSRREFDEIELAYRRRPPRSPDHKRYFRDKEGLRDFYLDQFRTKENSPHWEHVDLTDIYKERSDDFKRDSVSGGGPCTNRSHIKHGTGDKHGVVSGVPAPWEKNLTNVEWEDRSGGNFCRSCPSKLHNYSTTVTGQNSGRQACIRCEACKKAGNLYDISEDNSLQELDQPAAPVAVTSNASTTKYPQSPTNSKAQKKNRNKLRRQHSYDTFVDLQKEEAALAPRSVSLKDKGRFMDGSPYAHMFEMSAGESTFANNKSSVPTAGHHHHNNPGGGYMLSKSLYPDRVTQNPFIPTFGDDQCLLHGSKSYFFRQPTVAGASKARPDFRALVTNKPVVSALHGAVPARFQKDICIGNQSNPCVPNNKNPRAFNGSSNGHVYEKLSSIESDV
Kind of data set: Cell-based calcium flux (FLIPR) assay on cloned human NR1/NR2B ion channels expressed in mammalian cells. The following applies: standard assay, glutamate ~EC40 plus 10 μM glycine, cells expressing human GluN1/GluN2B. How it is done:
Effects of Test Articles on Cloned Human NR1/NR2B Ion Channels Expressed in Mammalian Cells
NMDA receptors are ion channels that are highly permeable to Ca^2+ ions, rendering it possible to monitor NMDA receptor function using cell-based calcium flux assay. In this assay, co-agonists glutamate and glycine are added to cells heterologously expressing human GluN1/GluN2B NMDA receptors to initiate cellular Ca^2+ influx. The time course of the changes in intracellular calcium is measured using a fluorescent dye and a FLIPR (Fluorometric Imaging Plate Reader) device.
Twenty four hours before measurements, the expression of the NMDA receptors in the stable cell line is induced with Tet-On inducible system in the presence of a non-selective NMDA receptor blocker. […] After 1 h incubation at the room temperature, the dye is washed away with the assay buffer (137 mM NaCl (standard assay) or 150 mM (HTS assay), 4 mM KCl (standard assay) or 3 mM (HTS assay), 2 mM CaCl2), 0.01 mM EDTA, 10 mM HEPES and 5 mM D-glucose; pH 7.4) In the FLIPR TETRA reader, various concentrations of the test compounds are added to the cells for 5 min while fluorescence is monitored to detect potential agonist activity. […] The fluorescent signal in the presence of test compounds is quantified and normalized to the signal defined by the appropriate control wells.
In general terms: A change in cytosolic calcium serves as a functional read-out for many receptors and channels.
With “2-[6-(4-Fluoro-3-methyl-phenyl)pyrazolo[3,4-b]pyrazin-1-yl]-N,N-dimethyl-acetamide [Example 7]”, the IC50 was determined as 117 nM.

System in another data set: not listed separately
Kind of data set: Liver microsomal stability (extraction ratio). Format: in vitro ADME. As to conditions: test compound 1 μM, 0.5 mg/mL liver microsomes, NADPH, 37° C.; species not stated (method: mouse, rat, and human). The method, then: Protocol for Liver Microsomal Stability (Extraction Ratio)
Liver Microsomal Stability. Microsomal stability studies (Chrovian et al, “1H-Pyrrolo[3,2-b]pyridine GluN2B-Selective Negative Allosteric Modulators”. ACS Med Chem Lett. 2019 Jan. 10; 10(3):261-266) were conducted on a Biomek® FX Robotic Liquid Handling Workstation (Beckman Coulter, Brea, CA), which consists of a 96-channel pipette head, a 12-position workstation deck, and a plate incubator. Test compounds (1 μM) were spiked in a reaction mix consisting of 100 mM potassium phosphate buffer (pH 7.4), 3 mM MgCl2, and 0.5 mg/mL liver microsomes from mouse, rat, and human (BD Gentest). The reaction was brought to 37° C. and initiated by adding NADPH to a final concentration of 1 mM. After mixing on the plate deck, 50 μL aliquots were excised from the reaction plate at 0, 5, 10, 20, 40, and 60 min and quenched with four volumes of acetonitrile spiked with […] of the internal standard phenytoin. Quenched plates were centrifuged at 5700 rpm for 10 min at 4° C., and supernatant was diluted 1:3 in water before LC/MS/MS analysis. The compound half-lives were derived from plots of the ln of percent remaining compound over time to determine the intrinsic clearance. The predicted hepatic clearance was derived from the intrinsic clearance value using equations from the well-stirred model (Current Drug Metabolism, 2008, 9, 940-951), where no correction was made plasma protein binding and the blood to plasma concentration ratio was assumed to be one. The extraction ratio (ER) was calculated by dividing the predicted hepatic clearance by species blood flow (Q), where Q is 90, 55, and 21.7 mL/min/kg for mouse, rat and human, respectively
As for `O=C(Cn1ncc2ncc(-c3ccc(F)c(OC(F)F)c3)nc21)N1CC(F)C1` [Example 37, 2-[6-[3-(Difluoromethoxy)-4-fluoro-phenyl]pyrazolo[3,4-b]pyrazin-1-yl]-1-(3-fluoroazetidin-1-yl)ethanone], the “Extraction Ratio @ 1 μM” value is 0.46.
The same measure, in the same setting: the result for `O=C(Cn1ncc2ncc(-c3ccc(F)c(OC(F)F)c3)nc21)N1CCC1` [Example 28, 1-(Azetidin-1-yl)-2-[6-[3-(difluoromethoxy)-4-fluoro-phenyl]pyrazolo[3,4-b]pyrazin-1-yl]ethanone] reads 0.45; that for `CN(C)C(=O)Cn1ncc2ncc(-c3ccc(Cl)c(C(F)F)c3)nc21` [Example 12, 2-[6-[4-Chloro-3-(difluoromethyl)phenyl]pyrazolo[3,4-b]pyrazin-1-yl]-N,N-dimethyl-acetamide], 0.54; that for `O=C(Cn1nc(F)c2ncc(-c3ccc(F)c(C(F)F)c3)nc21)N1CCC1` [Example 25, 1-(Azetidin-1-yl)-2-[6-[3-(difluoromethyl)-4-fluoro-phenyl]-3-fluoro-pyrazolo[3,4-b]pyrazin-1-yl]ethanone], 0.41.
With `CN(C)C(=O)Cn1ncc2ncc(-c3ccc(F)c(C(F)F)c3)nc21` [Example 10, 2-[6-[3-(Difluoromethyl)-4-fluoro-phenyl]pyrazolo[3,4-b]pyrazin-1-yl]-N,N-dimethyl-acetamide], the “Extraction Ratio @ 1 μM” value amounted to 0.41.

For orientation: IC50 means the point on the concentration scale where inhibition reaches its midpoint.

Values taken from patent publication US11993587B2, “Substituted pyrazolo-pyrazines and their use as GluN2B receptor modulators” (JANSSEN PHARMACEUTICA NV, priority 2019, dated 2024).
